Results on two molecules are retold here after article PMC8566089 (Bioorganic Chemistry, 2021).

The test system of series [1] is MCF7 (breast) cancer cell line. The settings on record: read-out: IC50 ± SE, MCF7; cited from earlier work.
Series [2] concerns HCT116 (colon) cancer cell line. The following applies: read-out: IC50 ± SE, HCT116; cited from earlier work.
The subject of series [3] is A431 (squamous skin) cancer cell line. In words: MTT antiproliferative assay, A431. Format: cell-based. For orientation: Formazan colour is commonly taken as a measure of viable cells.
Series [4] relates to MCF7 (breast) cancer cell line. In words: MTT antiproliferative assay, MCF7. Format: cell-based.
Series [5] deals with HCT116 (colon) cancer cell line. In words: MTT antiproliferative assay, HCT116. Format: cell-based.
The test system of series [6] is RPE1 (normal human immortalized retinal pigment epithelial cell line). In words: MTT assay against normal RPE1 cells. Format: cell-based. The settings on record: RPE-1, read-out: IC50 ± SE, RPE1.
Series [7] relates to HCT116 (colon cancer cell line). In words: PI-flow cytometry cell cycle analysis. Format: cell-based. For orientation: A flow cytometer gives signals particle by particle.
Series [8] shares this test system. In words: Annexin V-FITC apoptosis/necrosis study. Format: cell-based. The following applies: at MTT-IC50 of the agent.
Series [9] deals with T1, VEGFR-2 (Homo sapiens, UniProt P35968). In words: VEGFR-2 Western blot in MCF7. Format: cell-based. A general note: A western blot detects proteins with antibodies after separation by electrophoresis.
T1 sequence (P35968 20-1356): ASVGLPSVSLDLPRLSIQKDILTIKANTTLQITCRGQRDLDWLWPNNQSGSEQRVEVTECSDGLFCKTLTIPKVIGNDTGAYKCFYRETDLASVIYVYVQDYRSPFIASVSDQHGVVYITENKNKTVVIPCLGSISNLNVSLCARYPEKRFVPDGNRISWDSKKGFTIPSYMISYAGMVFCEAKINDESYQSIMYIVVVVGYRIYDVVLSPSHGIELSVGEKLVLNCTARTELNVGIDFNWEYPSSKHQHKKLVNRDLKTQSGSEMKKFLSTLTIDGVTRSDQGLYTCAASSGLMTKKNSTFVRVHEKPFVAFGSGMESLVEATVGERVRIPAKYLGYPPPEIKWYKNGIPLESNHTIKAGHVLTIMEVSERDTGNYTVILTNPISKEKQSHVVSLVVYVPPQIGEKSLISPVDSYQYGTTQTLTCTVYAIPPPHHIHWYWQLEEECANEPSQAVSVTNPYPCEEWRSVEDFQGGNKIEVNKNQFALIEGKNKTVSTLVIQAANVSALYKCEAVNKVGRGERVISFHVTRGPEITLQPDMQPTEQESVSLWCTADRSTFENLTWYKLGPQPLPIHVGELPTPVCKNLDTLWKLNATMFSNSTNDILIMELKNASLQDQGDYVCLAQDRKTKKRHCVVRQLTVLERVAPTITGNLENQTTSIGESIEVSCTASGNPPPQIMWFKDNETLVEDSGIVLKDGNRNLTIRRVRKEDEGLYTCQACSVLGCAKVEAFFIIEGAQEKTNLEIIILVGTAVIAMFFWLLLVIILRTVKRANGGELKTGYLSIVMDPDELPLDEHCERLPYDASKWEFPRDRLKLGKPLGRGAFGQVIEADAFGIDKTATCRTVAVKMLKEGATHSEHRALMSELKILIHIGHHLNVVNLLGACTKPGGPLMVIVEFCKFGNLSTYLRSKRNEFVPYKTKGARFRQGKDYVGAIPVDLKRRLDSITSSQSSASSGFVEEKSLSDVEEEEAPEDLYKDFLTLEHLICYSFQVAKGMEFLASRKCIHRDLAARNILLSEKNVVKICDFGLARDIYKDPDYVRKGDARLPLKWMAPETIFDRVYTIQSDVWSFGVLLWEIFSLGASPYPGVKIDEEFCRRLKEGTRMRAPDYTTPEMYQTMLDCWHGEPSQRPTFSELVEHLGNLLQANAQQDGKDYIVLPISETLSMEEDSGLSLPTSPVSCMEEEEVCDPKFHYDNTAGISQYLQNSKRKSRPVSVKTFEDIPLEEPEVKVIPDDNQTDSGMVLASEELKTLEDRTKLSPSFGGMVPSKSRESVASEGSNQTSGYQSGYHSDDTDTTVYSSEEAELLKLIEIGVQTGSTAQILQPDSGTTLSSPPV
In series [10] the target is T1, VEGFR-2. In words: VEGFR-2 Western blot in HCT116. Format: cell-based.
For series [11], the target named is T2, EGFR (Homo sapiens, UniProt P00533). In words: EGFR Western blot in MCF7. Format: cell-based.
T2 sequence (P00533 25-1210): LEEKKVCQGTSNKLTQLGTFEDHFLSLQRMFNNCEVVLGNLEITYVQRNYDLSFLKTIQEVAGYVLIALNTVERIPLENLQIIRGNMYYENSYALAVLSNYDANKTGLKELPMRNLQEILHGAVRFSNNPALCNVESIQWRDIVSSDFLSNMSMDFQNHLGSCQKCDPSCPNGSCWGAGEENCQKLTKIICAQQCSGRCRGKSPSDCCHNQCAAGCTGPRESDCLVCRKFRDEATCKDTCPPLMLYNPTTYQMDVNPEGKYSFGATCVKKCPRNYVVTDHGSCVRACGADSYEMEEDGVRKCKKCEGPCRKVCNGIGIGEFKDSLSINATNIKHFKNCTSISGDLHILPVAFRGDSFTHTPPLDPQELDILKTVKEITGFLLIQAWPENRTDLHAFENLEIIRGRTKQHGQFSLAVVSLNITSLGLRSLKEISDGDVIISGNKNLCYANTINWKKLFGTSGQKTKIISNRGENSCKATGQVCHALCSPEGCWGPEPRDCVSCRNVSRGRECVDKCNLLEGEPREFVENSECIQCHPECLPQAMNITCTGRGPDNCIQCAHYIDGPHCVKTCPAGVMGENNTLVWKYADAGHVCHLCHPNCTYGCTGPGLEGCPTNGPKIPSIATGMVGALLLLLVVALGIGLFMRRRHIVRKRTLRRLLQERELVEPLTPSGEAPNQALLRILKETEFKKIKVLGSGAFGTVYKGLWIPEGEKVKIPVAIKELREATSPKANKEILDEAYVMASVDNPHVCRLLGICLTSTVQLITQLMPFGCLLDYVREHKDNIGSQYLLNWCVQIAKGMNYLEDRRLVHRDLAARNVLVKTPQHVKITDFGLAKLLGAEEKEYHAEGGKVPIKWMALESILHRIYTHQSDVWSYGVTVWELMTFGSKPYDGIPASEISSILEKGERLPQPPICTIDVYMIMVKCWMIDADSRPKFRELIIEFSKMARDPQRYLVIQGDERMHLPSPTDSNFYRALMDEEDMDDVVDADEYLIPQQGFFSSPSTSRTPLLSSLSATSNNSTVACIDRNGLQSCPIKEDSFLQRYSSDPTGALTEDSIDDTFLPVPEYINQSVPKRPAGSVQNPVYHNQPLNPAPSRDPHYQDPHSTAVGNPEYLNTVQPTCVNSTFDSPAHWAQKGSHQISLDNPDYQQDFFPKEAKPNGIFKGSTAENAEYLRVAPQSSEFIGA
The target in series [12] is T2, EGFR. In words: EGFR Western blot in HCT116. Format: cell-based.
Series [13] concerns the target T3, COX-1 (Ovis aries, UniProt P05979).
T3 sequence (P05979 25-600): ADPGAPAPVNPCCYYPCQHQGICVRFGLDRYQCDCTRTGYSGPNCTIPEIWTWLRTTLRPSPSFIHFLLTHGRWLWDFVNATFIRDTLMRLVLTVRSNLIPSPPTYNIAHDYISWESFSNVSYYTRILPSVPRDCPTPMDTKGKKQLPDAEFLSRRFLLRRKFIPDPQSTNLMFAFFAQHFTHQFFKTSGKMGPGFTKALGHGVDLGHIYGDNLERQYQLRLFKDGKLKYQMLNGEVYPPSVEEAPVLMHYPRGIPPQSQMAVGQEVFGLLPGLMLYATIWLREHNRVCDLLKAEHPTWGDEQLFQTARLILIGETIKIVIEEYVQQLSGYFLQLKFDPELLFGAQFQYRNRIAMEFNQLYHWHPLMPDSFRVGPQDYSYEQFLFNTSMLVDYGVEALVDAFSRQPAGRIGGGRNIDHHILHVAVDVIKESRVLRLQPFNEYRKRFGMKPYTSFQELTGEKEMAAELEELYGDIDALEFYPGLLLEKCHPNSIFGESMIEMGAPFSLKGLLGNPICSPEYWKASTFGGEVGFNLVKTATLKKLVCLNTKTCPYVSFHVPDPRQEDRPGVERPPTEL
In words: COX-1 inhibitor screening kit. Format: biochemical.

Series [14] has as its target T4, COX-2 (Homo sapiens, UniProt P35354).
T4 sequence (P35354 18-604): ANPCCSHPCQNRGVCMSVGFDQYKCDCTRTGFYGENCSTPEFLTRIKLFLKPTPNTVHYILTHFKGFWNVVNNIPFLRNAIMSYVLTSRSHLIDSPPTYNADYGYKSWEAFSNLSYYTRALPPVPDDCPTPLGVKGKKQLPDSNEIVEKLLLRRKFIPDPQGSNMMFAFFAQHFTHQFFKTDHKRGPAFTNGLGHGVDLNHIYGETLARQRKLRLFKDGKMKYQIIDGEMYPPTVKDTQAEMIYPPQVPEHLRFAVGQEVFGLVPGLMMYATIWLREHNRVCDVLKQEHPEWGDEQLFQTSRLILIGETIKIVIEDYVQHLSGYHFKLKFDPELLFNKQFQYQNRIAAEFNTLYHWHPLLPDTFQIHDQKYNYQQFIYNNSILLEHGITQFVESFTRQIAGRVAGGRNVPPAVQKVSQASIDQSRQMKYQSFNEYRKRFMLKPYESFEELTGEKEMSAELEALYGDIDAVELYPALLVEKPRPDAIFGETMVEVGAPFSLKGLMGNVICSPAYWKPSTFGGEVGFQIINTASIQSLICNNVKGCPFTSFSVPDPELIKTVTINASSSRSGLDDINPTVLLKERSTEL
In words: COX-2 inhibitor screening kit. Format: biochemical.

Series [15] relates to SARS-CoV-2 (hCoV-19/Egypt/NRC-03/2020). The following applies: SARS-CoV-2 / VERO-E6.

Where two headings read alike, the source gives them in different places.

Take `COc1cc(/C=C/C(=O)CC(=O)/C=C/c2ccc(O)c(OC)c2)ccc1O` [Cur, curcumin]: the IC50 (in general, the concentration that gives 50% inhibition) is 16 ± 2.04 µM in series [1] and 38.2 ± 2.36 µM in series [2].
On to `COc1cc(/C=C2\CN(C(=O)c3cc(Cl)ccc3OC(C)=O)C/C(=C\c3cc(OC)c(OC)c(OC)c3)C2=O)cc(OC)c1OC` [Compound 5o, 4-Chloro-2-(4-oxo-3,5-bis((E)-3,4,5-trimethoxybenzylidene)piperidine-1-carbonyl)phenyl acetate], for which the IC50 in series [3] (Homo sapiens, A-431, 72 h, read-out: IC50 ± SE, A431) is 0.431 ± 0.03 µM. For the same molecule, in series [3] (IC50 of RPE1 relative to that of A431), the “SI (selectivity index), A431” value is recorded as 16.3. The IC50 in series [4] (Homo sapiens, MCF7, 72 h, read-out: IC50 ± SE, MCF7) stood at 2.65 ± 0.22 µM. Also, the “SI (selectivity index), MCF7” value in series [4] (IC50 of RPE1 relative to that of MCF7) is given as 2.65. Further, the IC50 in [5] (Homo sapiens, HCT-116, 72 h, read-out: IC50 ± SE, HCT116) was determined as 0.75 ± 0.06 µM. Moreover, the “SI (selectivity index), HCT116” value in [5] (IC50 of RPE1 relative to that of HCT116) is reported as 9.36. The IC50 in [6] stood at 7.02 ± 0.45 µM. In addition, the “phase of cell cycle arrest” value in series [7] (PI-flow cytometry) is given as “S-phase”. For the same molecule, in [7] (at MTT-IC50 of the agent), the “DNA content (%) G0-G1” value was found to be 42.75%, the “DNA content (%) G2/M” value came out at 4.14%, the “DNA content (%) Pre-G1” value was found to be 35.75% and the “DNA content (%) S” value was 53.11%. Moreover, in series [8], the “Apoptosis (%) Early” value came to 1.72%, the “Apoptosis (%) Total” value turned out to be 35.75% and the “Necrosis (%)” value was found to be 9.44%. Also, the “VEGFR2 MCF7 % Inhibition” value in series [9] (Western blot at MTT-IC50) amounted to 63.0%. Further, in series [9] (Western blot at MTT-IC50, control RQ 3.725), the “VEGFR2 MCF7 RQ (relative quantification)” value is on record as 1.38. The “VEGFR2 HCT116 % Inhibition” value in [10] (Western blot at MTT-IC50) stood at 69.6%. Further, the “VEGFR2 HCT116 RQ (relative quantification)” value in series [10] (Western blot at MTT-IC50, control RQ 3.817) stood at 1.16. For the same molecule, the “EGFR MCF7 % Inhibition” value in [11] (Western blot at MTT-IC50) is 69.2%. Also, in series [11] (Western blot at MTT-IC50, control RQ 4.226), the “EGFR MCF7 RQ (relative quantification)” value was determined as 1.3. Also, in series [12] (Western blot at MTT-IC50), the “EGFR HCT116 % Inhibition” value is recorded as 68.2%. Moreover, the “EGFR HCT116 RQ (relative quantification)” value in series [12] (Western blot at MTT-IC50, control RQ 4.0382) is listed as 1.283. This molecule also registered an IC50 in series [13] of 0.193 µM. Further, in series [14], half-maximal inhibition (IC50) required 1.6 µM and the “SI = IC50(COX-1)/IC50(COX-2)” value came out at 0.121. Further, in [15], the “SI = CC50/IC50” value is 34.0.
